Legend:
[1] = target: T1, human MDR1 transfected MDCK cells (Homo sapiens, UniProt P08183); experiment: MDR1-MDCK assay (efflux ratio); format: in vitro ADME; settings: 1 μM compound, 120 minutes incubation
T1 construct: host or cells: MDCK cells
Procedure, shortened: (§1)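 Human MDR1-transfected MDCK monolayers, cultured 7 days on transwell inserts with TEER checked, were dosed with compound at 1 μM in HBSS-HEPES. Transport was measured in both A-B and B-A directions. Efflux ratio came from the directional permeabilities, with mass balance also calculated.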

IRAK4 [2] = target: T2, IRAK4 (Homo sapiens, UniProt Q9NWZ3); experiment: IRAK4 MSD Biochemical Assay (1 mM ATP, 2 h); settings: room temperature, read-out: IRAK4 MSD Biochemical Assay (1 mM ATP, 2 h) IC50
T2 construct: with 0.1 nM IRAK4, 1.6 μM of biotinylated peptide substrate and 10 μM ATP
T2 sequence (Q9NWZ3 1-460): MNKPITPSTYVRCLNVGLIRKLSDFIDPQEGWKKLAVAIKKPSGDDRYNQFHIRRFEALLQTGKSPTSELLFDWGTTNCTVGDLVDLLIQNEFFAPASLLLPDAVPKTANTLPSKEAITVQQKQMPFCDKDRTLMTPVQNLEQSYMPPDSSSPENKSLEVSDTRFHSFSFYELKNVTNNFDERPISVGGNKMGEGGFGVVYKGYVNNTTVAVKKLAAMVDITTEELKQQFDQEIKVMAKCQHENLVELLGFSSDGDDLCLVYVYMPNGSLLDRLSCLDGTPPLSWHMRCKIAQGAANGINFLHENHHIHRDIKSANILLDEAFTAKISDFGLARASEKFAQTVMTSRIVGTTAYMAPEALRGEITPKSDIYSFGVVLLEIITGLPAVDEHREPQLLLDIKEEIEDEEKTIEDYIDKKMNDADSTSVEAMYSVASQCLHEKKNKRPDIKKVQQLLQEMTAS
Procedure, shortened: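 Run with 1 mM ATP and […] for 2 h, then quenched with EDTA, pH 8. The phosphorylated biotinylated peptide was captured on streptavidin plates and detected with anti-phospho-threonine antibody plus Sulfo-Tag secondary by MSD electrochemiluminescence.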

MDR1 (P-gp) = target: T3, MDR1 (P-gp) (Homo sapiens, UniProt P08183); experiment: MDR1-MDCK assay (efflux ratio); format: in vitro ADME; settings: human, MDCK-MDR1, 1 μM compound, 120 minutes incubation; read-out: MDR1-MDCK Efflux Ratio; (B-A/A-B)
T3 construct: host or cells: MDCK cells
Procedure, shortened: as §1

IRAK4 [3] = target: T2, IRAK4; experiment: IRAK4 MSD Biochemical Assay (10 μM ATP, 2 h); settings: 0.1 nM IRAK4, 2 h, room temperature
Experimental: The 2-hour 10 μM ATP Biochemical Assay employs a MesoScale Detection (MSD) format. The kinase reaction is based on the IRAK4 phosphorylation of a biotin labeled peptide (IRAK1 activation loop sequence 360-389).
The kinase reaction in 30 μl is carried out in wells of a 384 well polypropylene assay plate, with 0.1 nM IRAK4, 1.6 μM of biotinylated peptide substrate and 10 μM ATP in 50 mM Hepes, pH 7.5, 60 mM NaCl, 5 mM MgCl2, 0.25 mM MnCl2, 2 mM DTT, 0.01% BSA, 0.01% BSA, and 1% DMSO (from compound DMSO stocks), for 2 hour at room temperature. The activity is quenched with 11 μl of 70 mM EDTA, pH 8.
To detect the phosphorylated biotinylated peptide substrate, 30 μl of the quenched reaction mixture is added to equivalent wells of a 384 well streptavidin coated MesoScale plate (Meso Scale Discovery #L21SA-1). After a 1 hour incubation of the plate for 1 hour at room temperature with gentle mixing, the plate wells are washed 3 times with 50 mM Tris, pH 7.5, 150 mM NaCl, 0.02% Tween-20.
A 25 μl volume of 1:500 anti-P-Threonine Rabbit polyclonal Antibody plus 1:500 Goat-anti-Rabbit Sulfo Tag Antibody (Meso Scale Discovery R32AB-1) in 50 mM Tris, pH 7.5, 150 mM NaCl, 0.02% Tween-20 plus 2% BSA is then added to each well. After a 1-hour incubation of the plate for 1 hour at room temperature with gentle mixing, the plate wells are washed, 3 times with 50 mM Tris, pH 7.5, 150 mM NaCl, 0.02% Tween-20. A 40 μl volume of 2×MSD Read Buffer (Meso Scale Discovery R92TC-1) is added to each well, and the plate is read immediately in an MSD Plate Reader (Meso Scale Discovery).

T3 sequence (P08183 whole entry): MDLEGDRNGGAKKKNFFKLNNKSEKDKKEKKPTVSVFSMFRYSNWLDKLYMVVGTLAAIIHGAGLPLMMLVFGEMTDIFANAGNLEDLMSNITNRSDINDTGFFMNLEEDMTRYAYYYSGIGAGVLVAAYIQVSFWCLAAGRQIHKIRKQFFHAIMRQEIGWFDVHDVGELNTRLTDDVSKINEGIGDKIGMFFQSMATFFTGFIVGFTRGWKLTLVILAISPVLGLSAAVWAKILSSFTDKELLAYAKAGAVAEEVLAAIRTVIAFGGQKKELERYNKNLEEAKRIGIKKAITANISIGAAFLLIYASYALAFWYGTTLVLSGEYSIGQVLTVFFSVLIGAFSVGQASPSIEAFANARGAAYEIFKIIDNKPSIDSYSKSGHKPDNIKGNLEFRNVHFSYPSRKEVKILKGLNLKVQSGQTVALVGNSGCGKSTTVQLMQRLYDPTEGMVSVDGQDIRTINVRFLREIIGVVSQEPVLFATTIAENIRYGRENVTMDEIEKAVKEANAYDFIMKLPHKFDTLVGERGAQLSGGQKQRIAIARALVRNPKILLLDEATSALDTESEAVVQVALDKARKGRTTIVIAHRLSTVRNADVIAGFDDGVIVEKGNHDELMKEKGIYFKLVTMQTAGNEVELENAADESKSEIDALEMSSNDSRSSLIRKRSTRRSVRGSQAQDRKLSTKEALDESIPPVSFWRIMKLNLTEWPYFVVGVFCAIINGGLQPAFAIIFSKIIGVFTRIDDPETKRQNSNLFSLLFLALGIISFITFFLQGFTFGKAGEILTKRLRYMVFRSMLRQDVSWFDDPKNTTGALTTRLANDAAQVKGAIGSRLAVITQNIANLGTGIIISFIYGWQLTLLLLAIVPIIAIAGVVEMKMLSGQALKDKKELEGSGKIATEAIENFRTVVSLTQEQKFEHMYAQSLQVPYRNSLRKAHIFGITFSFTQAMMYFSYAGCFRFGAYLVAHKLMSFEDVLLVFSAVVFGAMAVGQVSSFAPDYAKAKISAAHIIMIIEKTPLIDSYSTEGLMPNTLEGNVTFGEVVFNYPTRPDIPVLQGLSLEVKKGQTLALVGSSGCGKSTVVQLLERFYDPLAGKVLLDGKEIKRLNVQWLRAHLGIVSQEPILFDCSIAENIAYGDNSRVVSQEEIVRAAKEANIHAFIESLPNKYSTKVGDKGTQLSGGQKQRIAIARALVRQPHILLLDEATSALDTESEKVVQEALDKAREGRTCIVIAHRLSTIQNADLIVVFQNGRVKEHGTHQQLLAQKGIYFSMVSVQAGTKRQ
T1 sequence (P08183 whole entry): as above

MDR1-MDCK Efflux Ratio; (B-A/A-B) [1] | IC50 (IRAK4 [2]) [nM] | efflux ratio at 120 min, 1 μM (MDR1 (P-gp)) | IC50 (IRAK4 [3]) [nM] | SMILES
1.7 | 0.2 |  |  | CC12CCC(n3cc4cc(C(=O)Nc5cnn6cccnc56)c(OC5CCC5)cc4n3)(CO1)C2 (single isomer, unassigned) [Example 138]
 |  | 0.9 | 26 | COCCn1cc2cc(C(=O)Nc3cccc(C(F)F)n3)c(OC)cc2n1 [Example 10, N-(6-(difluoromethyl)pyridin-2-yl)-6-methoxy-2-(2-methoxyethyl)-2H-indazole-5-carboxamide]
 | 6.8 | 1.1 | 2 | COc1cc2nn(CC3CCOC3)cc2cc1C(=O)Nc1cccc(C(F)F)n1 (stereo not shown) [Example 11, N-(6-(difluoromethyl)pyridin-2-yl)-6-methoxy-2-((tetrahydrofuran-3-yl)methyl)-2H-indazole-5-carboxamide]
 | 5.5 | 1.4 | 2 | COc1cc2nn(CCC(C)(C)OC)cc2cc1C(=O)Nc1cccc(C(F)F)n1 [Example 12, N-(6-(difluoromethyl)pyridin-2-yl)-6-methoxy-2-(3-methoxy-3-methylbutyl)-2H-indazole-5-carboxamide]

— patent US20230002361A1, “2H-INDAZOLE DERIVATIVES AND THEIR USE IN THE TREATMENT OF DISEASE” (BIOGEN MA INC., priority 2019, published 2023)
